Columns and labels:
Assay in all cases: relative viability (nuclei count vs DMSO), 5 days (fraction); higher = more cells survive
AZD5582 + OSI-027 = compound: C[C@@H](C(=O)N[C@@H](C1CCCCC1)C(=O)N2CCC[C@H]2C(=O)N[C@@H]3[C@@H](CC4=CC=CC=C34)OCC#CC#CCO[C@@H]5CC6=CC=CC=C6[C@@H]5NC(=O)[C@@H]7CCCN7C(=O)[C@H](C8CCCCC8)NC(=O)[C@H](C)NC)NC [AZD5582] + COc1cccc2cc(-c3nc([C@H]4CC[C@H](C(=O)O)CC4)n4ncnc(N)c34)[nH]c12 [OSI-027] (partner 0.5 µM)
Summary of the method: (§1)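 Lung cancer cell lines were pin-tool dosed in 1536-well plates on the day after seeding, with either a lone drug or a fixed anchor-drug dose plus five library-drug doses (not always all listed) in √10 steps. Nuclei were counted on 4× images after 5 days. Relative viability is the ratio of treated-well to vehicle-well nuclei counts, with each value a median of duplicate plates.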

[1] = compound: Cn1nnc2c(C(N)=O)ncn2c1=O [Temozolomide] + CC1(C)CCC(c2ccc(Cl)cc2)=C(CN2CCN(c3ccc(C(=O)NS(=O)(=O)c4ccc(N[C@H](CCN5CCOCC5)CSc5ccccc5)c(S(=O)(=O)C(F)(F)F)c4)cc3)CC2)C1 [Navitoclax] (partner 0.5 µM)
Summary of the method: as §1

[2] = compound: Cn1nnc2c(C(N)=O)ncn2c1=O [Temozolomide] + C[C@]1(O)C[C@@H](c2nc(-c3ccc4ccc(-c5ccccc5)nc4c3)c3c(N)nccn32)C1 [Linsitinib] (partner 1 µM)
Summary of the method: as §1

AZD5582 + Vorinostat = compound: C[C@@H](C(=O)N[C@@H](C1CCCCC1)C(=O)N2CCC[C@H]2C(=O)N[C@@H]3[C@@H](CC4=CC=CC=C34)OCC#CC#CCO[C@@H]5CC6=CC=CC=C6[C@@H]5NC(=O)[C@@H]7CCCN7C(=O)[C@H](C8CCCCC8)NC(=O)[C@H](C)NC)NC [AZD5582] + O=C(CCCCCCC(=O)Nc1ccccc1)NO [Vorinostat] (partner 1 µM)
Summary of the method: as §1

| Cell Line | relative viability (AZD5582 + OSI-027; first compound 0.001581 µM) | relative viability (AZD5582 + OSI-027; first compound 0.005 µM) | relative viability (AZD5582 + OSI-027; first compound 0.01581 µM) | relative viability (AZD5582 + OSI-027; first compound 0.05 µM) | relative viability ([1]; first compound 0.6325 µM) | relative viability ([1]; first compound 2 µM) | relative viability ([1]; first compound 6.325 µM) | relative viability ([1]; first compound 20 µM) | relative viability ([2]; first compound 0.6325 µM) | relative viability ([2]; first compound 2 µM) | relative viability ([2]; first compound 6.325 µM) | relative viability ([2]; first compound 20 µM) | relative viability (AZD5582 + Vorinostat; first compound 0.001581 µM) | relative viability (AZD5582 + Vorinostat; first compound 0.005 µM) | relative viability (AZD5582 + Vorinostat; first compound 0.01581 µM) | relative viability (AZD5582 + Vorinostat; first compound 0.05 µM) | relative viability ([1]; first compound 0.2 µM) | relative viability ([2]; first compound 0.2 µM) |
| --- | --- | --- | --- | --- | --- | --- | --- | --- | --- | --- | --- | --- | --- | --- | --- | --- | --- | --- |
| NCI-H1793 | 0.2 | 0.301 | 0.212 | 0.185 | 0.358 | 0.415 | 0.506 | 0.3 | 0.884 | 1.15 | 0.846 | 0.839 | 0.767 | 0.927 | 0.565 | 0.587 | – | – |
| NCI-H1915 | 0.559 | 0.64 | 0.475 | 0.627 | 0.754 | 0.684 | 0.495 | 0.305 | 1.02 | 0.969 | 0.711 | 0.402 | 0.428 | 0.439 | 0.462 | 0.477 | 0.797 | 1.15 |
| NCI-H1944 | 0.369 | 0.428 | 0.412 | 0.446 | 1.05 | 1.12 | 1.04 | 0.913 | 1.17 | 1.26 | 1.11 | 0.992 | 0.464 | 0.641 | 0.542 | 0.619 | 0.855 | 0.662 |
| NCI-H1975 | 0.688 | 0.956 | 0.829 | 0.9 | 1.11 | 1.2 | 1.07 | 1.13 | 1.01 | 0.922 | 0.903 | 0.9 | 0.699 | 0.872 | 0.687 | 0.885 | 1.2 | 0.961 |
| NCI-H1993 | 0.503 | 0.541 | 0.547 | 0.541 | 0.893 | 0.889 | 0.879 | 0.804 | 0.727 | 0.698 | 0.744 | 0.708 | 0.725 | 0.888 | 0.795 | 1.03 | 0.823 | 0.725 |
| NCI-H2009 | 0.536 | 0.73 | 0.448 | 0.48 | 1.22 | 1.12 | 1.17 | 1.25 | 1.22 | 1.3 | 1.2 | 1.22 | 0.695 | 0.743 | 0.711 | 0.792 | 1.2 | 1.2 |
| NCI-H2023 | 0.286 | 0.44 | 0.374 | 0.368 | 1 | 1.13 | 0.985 | 0.997 | 0.7 | 0.665 | 0.712 | 0.662 | 0.508 | 0.725 | 0.627 | 0.643 | 1.02 | 0.567 |
| NCI-H2085 | 0.499 | 0.902 | 0.578 | 0.367 | 1.24 | 1.24 | 1.18 | 1.06 | 0.919 | 0.788 | 0.994 | 0.84 | 0.82 | 1 | 0.73 | 0.917 | 1.2 | 0.865 |
| NCI-H2087 | 0.523 | 0.695 | 0.514 | 0.568 | 1.05 | 1.02 | 0.891 | 0.965 | 0.862 | 1.03 | 0.826 | 0.949 | 0.424 | 0.788 | 0.712 | 0.594 | 1.15 | 1.09 |
| NCI-H2126 | 0.709 | 0.703 | 0.522 | 0.607 | 0.829 | 0.83 | 0.886 | 0.844 | 0.712 | 0.646 | 0.768 | 0.692 | 0.817 | 0.84 | 0.47 | 0.704 | 0.853 | 0.691 |
| NCI-H2228 | 0.524 | 0.749 | 0.62 | 0.237 | 1.43 | 0.951 | 0.857 | 1.26 | 0.705 | 0.693 | 0.636 | 0.822 | 0.81 | 0.702 | 0.667 | 0.645 | 0.921 | 0.794 |
| NCI-H2347 | 0.335 | 0.388 | 0.364 | 0.456 | 0.825 | 0.441 | 0.73 | 0.732 | 1.11 | 1 | 0.859 | 0.964 | 0.63 | 0.547 | 0.515 | 0.483 | 0.818 | 1.08 |
| NCI-H2405 | 0.651 | 0.647 | 0.485 | 0.565 | 0.775 | 0.995 | 0.73 | 0.82 | 0.924 | 1.09 | 0.858 | 0.95 | 1.04 | 1.1 | 0.88 | 1.11 | 0.34 | 0.707 |
| NCI-H3122 | 0.912 | 0.891 | 1.02 | 0.147 | 1.03 | 1.08 | 1.01 | 0.976 | 1.02 | 1.02 | 0.985 | 0.98 | 0.946 | 1.09 | 0.924 | 0.236 | 1.05 | 0.963 |
| PC-3 [JPC-3] | 0.633 | 0.596 | 0.635 | 0.504 | 0.847 | 0.784 | 0.82 | 0.364 | 0.975 | 0.941 | 0.987 | 0.499 | 0.714 | 0.532 | 0.664 | 0.43 | 0.725 | 0.932 |
| PC-14 | 0.643 | 1.06 | 0.703 | 0.74 | 1.01 | 1.06 | 0.956 | 0.928 | 0.942 | 0.984 | 0.871 | 0.837 | 0.636 | 0.881 | 0.406 | 0.687 | 1.07 | 0.96 |
| RERF-LC-KJ | – | – | 0.508 | 0.289 | 0.884 | 0.928 | 0.951 | 1.06 | 0.888 | 0.948 | 0.982 | 0.868 | 0.306 | 0.225 | 0.655 | 0.283 | 1.04 | 0.928 |
| SK-LU-1 | 0.288 | 0.273 | 0.344 | 0.253 | 0.88 | 0.8 | 0.522 | 0.189 | 1.06 | 1.05 | 0.671 | 0.454 | 0.7 | 0.505 | 0.824 | 0.292 | 1.03 | 1.26 |
| SK-MES-1 | 0.599 | 0.602 | 0.566 | 0.591 | 1.16 | 1.23 | 1.22 | 1.38 | 1.09 | 1.07 | 1.13 | 1.05 | 1.08 | 1.19 | 1.02 | 1.26 | 1.22 | 1.14 |
| SW 1573 | 0.72 | 0.66 | 0.662 | 0.862 | 1.03 | 1.05 | 1 | 0.935 | 0.738 | 0.737 | 0.579 | 0.659 | 0.492 | 0.865 | 1.12 | 1.12 | 0.993 | 0.74 |
| UMC-11 | 0.469 | 0.53 | 0.476 | 0.454 | 0.315 | 0.313 | 0.281 | 0.274 | 1.06 | 0.942 | 0.91 | 0.584 | 0.396 | 0.391 | 0.381 | 0.354 | 0.338 | 1 |
